Test results as given in patent US12029751B2, “Therapeutic agent for nervous system disease” (OSAKA UNIVERSITY, priority 2017, dated 2024).

How the values were obtained:
[1] = tested on: photocoagulation-induced cerebral infarction model C57BL/6J mice; assay: Rotarod test in photocoagulation-induced cerebral infarction model; format: in vivo, mouse
Protocol: Eight to 10-week-old male C57BL/6J mice (about 24 g) were used. A photocoagulation-induced cerebral infarction model for laser light irradiation after rose bengal administration was constructed. In this model, the skull of each mouse was drilled to open a hole having a center at 2 mm from the anterior fontanel in the outward direction. At 5 minutes after a photosensitive dye rose bengal was administered, the right motor cortex as a center was irradiated with laser light to create cerebral infarction in the right lateral motor cortex. An osmotic pump (ALZET osmotic pumps, for 2-week operation) was embedded immediately after the creation of the cerebral infarction. The mice were divided into a methylcobalamin treatment group (N=3) and an untreated group (N=4), and rotarod tests (accelerating velocity method) were carried out at 2, 4, 7, 9, 11, and 14 days after the surgery creating cerebral infarction. The time until a mouse fell from a rotarod was measured, and a ratio to a maximum of 300 seconds as baseline was calculated.

[2] = tested on: rat sciatic nerve crush injury model; assay: Nerve regeneration after sciatic nerve injury (axons, myelinated axons, myelination rate); format: in vivo; details: for Myelination ratio / Number of axons / Number of myelinated axons: POD14
Text: Six-week-old male Wistar rats (about 200 g) were used. The left sciatic nerve was exteriorized, and crush injury of the sciatic nerve was made on the proximal side by forceps. The nerve was crushed for 10 seconds three times at 10-second intervals. The fascia and skin were sutured using 3-0 nylon. A non-injury group which underwent only sciatic nerve exposure, an untreated group, and a methylcobalamin treatment group were compared. To administer methylcobalamin continuously, an osmotic minipump was placed and left in the dorsal subcutaneous space, and methylcobalamin was administered at a dose of 1 mg/kg/day. In an untreated group, physiological saline was administered instead of methylcobalamin according to the same procedure.
At 1, 3, 7, and 14 days after the surgery, rats were anesthetized with an anesthetic agent. The left sciatic nerve was collected, fixed with 4% PFA for 7 days and with 20% sucrose for 24 hours, and the fixed nerve was freeze-embedded. The embedded tissue was sliced into a 5-μm-thick slice in a nerve short-axis direction and placed on a glass slide. Slices were obtained from 5 positions of 2.5 mm in the proximal direction from an injured region, the injured region, and 2.5, 5.0, and 7.5 mm in the distal direction. The slices were dried for 1 hour and fixed with 95% methanol for 30 minutes. The fixed slices were blocked and allowed to react with primary antibodies at 4° C. overnight. The cells were further allowed to react with a secondary antibody at room temperature for 1 hour so that the nuclei were labeled with DAPI.
The primary antibodies used were a mouse anti-CD68 monoclonal antibody (Abcam), a rabbit anti-iNOS monoclonal antibody (Abcam), a rabbit anti-CD206 monoclonal antibody (Abeam), a rabbit anti-neurofilament 200 (NF 200) polyclonal antibody (SIGMA), and a mouse anti-myelin basic protein (MBP) monoclonal antibody (Calbiochem). The secondary antibodies used were an Alexa 488-labeled goat anti-mouse IgG antibody (Life Technologies), an Alexa 488-labeled goat anti-rabbit IgG antibody (Life Technologies), an Alexa 568-labeled goat anti-mouse IgG antibody (Life Technologies), and an Alexa 568-labeled goat anti-rabbit IgG antibody (Life Technologies).
Effects of methylcobalamin on nerve regeneration after sciatic nerve injury were analyzed by an immunohistological evaluation method. Specifically, the analysis was carried out as follows. Transvers sections of an injured sciatic nerve obtained at 2 weeks after sciatic nerve injury were used for evaluation. As in the macrophage evaluation, evaluations were carried out for the sections at 2.5 mm in the proximal direction from an injury site, the injury site, and 2.5, 5.0, and 7.5 mm in the distal direction. Regenerated axons were labeled with NF 200, and myelin sheaths were labeled with MBP. The myelination rate of the regenerated axons was calculated by the following formula: Myelination rate (%)=number of myelinated axons per mm^2/number of axons per mm^2×100. More specifically, the analysis was performed in the same manner as in Example 7.

[3] = tested on: cerebral cortical neurons; assay: TUNEL assay, apoptosis inhibiting effect on cerebral cortical neurons; format: cell-based, rat; details: after 18 hours
Text: Cerebral cortical neurons were collected and cultured by a conventional method. Cerebral cortex was dissected from a fetus of a Sprague-Dawley (SD) rat (18th day of pregnancy) and recovered in ice-cooled Dulbecco's Modified Eagle Medium (DMEM) containing 10% fetal bovine serum (FBS) and 1% penicillin/streptomycin. The pia mater and blood vessels were removed, and the remaining cerebral cortex was transferred to DMEM (containing 1% penicillin/streptomycin and no FBS) and cut into small pieces having a size of 1 mm by surgical scissors. Papain (final concentration, 2 mg/ml) was added to the cell mixture, and the mixture was allowed to react at 37° C. for 30 minutes. DNase I (70 U/ml) was added to the reaction mixture and reaction was carried out for 30 seconds. Then, DMEM containing 10% FBS and 1% penicillin/streptomycin was added to terminate the reaction. The cell mixture was centrifuged at 800 rpm, the residue was re-suspended in DMEM containing 10% FBS and 1% penicillin/streptomycin, and the suspension was seeded on a dish coated with poly-L lysine (PLL). At 4 hours after the cell seeding, the medium was replaced with Neurobasal medium (containing 10% B27 supplement and 1% penicillin/streptomycin).
To the cerebral cortical neurons (Example 1-1) cultured on a PLL-coated 8-well chamber slide, 20 mM glutamic acid and […] methylcobalamin (MeCbl) were added. After 18 hours, the proportion of apoptotic cells was evaluated using Promega's DeadEnd Fluorometric TUNEL System. Cells were fixed with 4% paraformaldehyde (PFA) at 4° C. for 25 minutes. After cells were permeabilized with 0.2% Triton X-100 for 5 minutes, an incubation buffer was added, and the mixture was left stand at 37° C. with light shielding for 60 minutes to label the permeabilized cells. The nuclei were labeled with 4′6-diamidino-2-phenylindole (DAPI). The total cell number and the number of TUNEL-positive cells were determined.

[4] = 5.0 and 7.5 mm in the distal direction, 2 weeks after injury
[5] = 2.5 mm in the proximal direction
[6] = injury site, 2 weeks after sciatic nerve injury, 1 mg/kg/day

Compound: C/C1=C2/[N-][C@H]([C@H](CC(N)=O)[C@@]2(C)CCC(=O)NC[C@@H](C)OP(=O)([O-])O[C@H]2[C@@H](O)[C@@H](n3cnc4cc(C)c(C)cc43)O[C@@H]2CO)[C@]2(C)N=C(/C(C)=C3N=C(/C=C4N=C1[C@@H](CCC(N)=O)C\4(C)C)[C@@H](CCC(N)=O)[C@]\3(C)CC(N)=O)[C@@H](CCC(N)=O)[C@]2(C)CC(N)=O.[CH3-].[Co+3] [MeCbl, methylcobalamin]
- rotarod test: time until fall, ratio to a maximum of 300 seconds as baseline ([1]; 0 day after PIT operation (baseline)): 0.998
- rotarod test: time until fall, ratio to a maximum of 300 seconds as baseline ([1]; 2 days after PIT operation, osmotic pump): 0.470
- rotarod test: time until fall, ratio to a maximum of 300 seconds as baseline ([1]; 2 days after PIT operation, osmotic pump, listed as methylcobalamin): significantly improved
- rotarod test: time until fall, ratio to a maximum of 300 seconds as baseline ([1]; 4 days after PIT operation, osmotic pump): 0.573
- rotarod test: time until fall, ratio to a maximum of 300 seconds as baseline ([1]; 4 days after PIT operation, osmotic pump, listed as methylcobalamin): significantly improved
- rotarod test: time until fall, ratio to a maximum of 300 seconds as baseline ([1]; 7 days after PIT operation, osmotic pump): 0.370
- rotarod test: time until fall, ratio to a maximum of 300 seconds as baseline ([1]; 9 days after PIT operation, osmotic pump): 0.437
- rotarod test: time until fall, ratio to a maximum of 300 seconds as baseline ([1]; 9 days after PIT operation, osmotic pump, listed as methylcobalamin): significantly improved
- rotarod test: time until fall, ratio to a maximum of 300 seconds as baseline ([1]; 11 days after PIT operation, osmotic pump): 0.521
- rotarod test: time until fall, ratio to a maximum of 300 seconds as baseline ([1]; 14 days after PIT operation, osmotic pump): 0.510
- myelination rate as compared to the untreated group [2, 4]: significant differences
- numbers of axons as compared to the untreated group [2, 4]: significant differences
- Myelination ratio ([2]; 2.5 mm in the distal direction): 0.531
- Number of axons ([2]; 2.5 mm in the distal direction): 14478
- Number of myelinated axons ([2]; 2.5 mm in the distal direction): 7620
- Myelination ratio [2, 5]: 0.975
- Number of axons [2, 5]: 16251
- Number of myelinated axons [2, 5]: 15838
- Myelination ratio ([2]; 5.0 mm in the distal direction): 0.253
- Number of axons ([2]; 5.0 mm in the distal direction): 16663
- Number of myelinated axons ([2]; 5.0 mm in the distal direction): 4400
- Myelination ratio ([2]; 7.5 mm in the distal direction): 0.163
- Number of axons ([2]; 7.5 mm in the distal direction): 14678
- Number of myelinated axons ([2]; 7.5 mm in the distal direction): 2473
- Myelination ratio ([2]; Injury site): 0.691
- Number of axons ([2]; Injury site): 14210
- Number of myelinated axons ([2]; Injury site): 9785
- numbers of axons as compared to the untreated group [2, 6]: significantly improved
- numbers of myelinated axons as compared to the untreated group [2, 6]: significantly improved
- proportion of apoptotic cells ([3]; 20 mM glutamic acid + methylcobalamin): 5.6%
- proportion of apoptotic cells ([3]; 20 mM glutamic acid + methylcobalamin, listed as methylcobalamin): significantly decreased to the level of the control
- proportion of apoptotic cells ([3]; MeCbl alone (Glutamate −), methylcobalamin): 5.9%
